We go through 19 compounds from PubChem BioAssay (NCI).

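Growth conditions: 96-well plates. Treatment: test compound, 48 hours, 5 concentrations. Analysis: linear interpolation between bracketing concentrations; unreached endpoints set to highest concentration. GI50 marks 50% less growth. The concentration for full growth arrest is given as TGI.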

The test system of one assay is HS 578T breast. Description: NCI-60 cell line screen, 48 h.
As to `CC(C)=CCc1cc(O)cc2c1OC(C=C(C)C)C1=C2C(=O)C2=C(NCCS2(=O)=O)C1=O` (stereo not given), the GI50 is 3.48 µM and the TGI is 11.9 µM.
`O=C1NC(=S)NNC12c1ccccc1-c1ccccc12`: the TGI was > 10 µM.
In the case of `Cc1csc(Nc2nc(-c3cccc(Br)c3)nc(C(Cl)(Cl)Cl)n2)n1`, the GI50 is 2.94 µM and the TGI was > 100 µM.
Turning to `COc1c(OC)c(OC)c(C(=O)/C=C/c2ccccc2)c(OC)c1OC`, the TGI is > 100 µM.
As to `NS(=O)(=O)c1ccc(N(/C=C/C(=O)C(F)(F)F)CC(=O)c2ccc(Cl)cc2)cc1`, the GI50 was > 100 µM and the TGI is > 100 µM.
For the compound `CC1=CC(=O)[C@@H](O)[C@]2(C)[C@H]3[C@@]4(O)OC[C@]35[C@H]([C@@H](C)[C@H]4O)[C@@H](O)C(=O)O[C@@H]5C[C@@H]12`, the TGI came to 1.19 µM.
As to `Nc1nc(N)c(N=Nc2ccc([As](=O)(O)O)cc2)c(=O)[nH]1`, the TGI is > 100 µM.
Regarding `COc1ccc2[nH]cc(-c3nc(-c4c[nH]c5ncccc45)cs3)c2c1`, the GI50 was 4.17 µM and the TGI was > 100 µM.
As to `O=c1cc(-c2ccccc2)[nH]c2c(S)cccc12`, the TGI was > 100 µM.
On to `C=CCc1cccc(/C=N/NC(=O)CN2CCN(Cc3ccccc3)CC2)c1O`, for which the GI50 is 5.63 µM and the TGI is 23.1 µM.
On to `N#Cc1c(-c2ccc(F)cc2)c(-c2ccc(F)cc2)nn(CCO)c1=O`, for which the TGI was found to be 12.1 µM.

The subject of a further assay is NCI-H522 lung. The assay can be described thus: NCI-60 cell line screen, 48 h.
Regarding `Nc1nccc2c1ccn2-c1ccc(NC(=O)c2ccc(N3CCOCC3)c(C(F)(F)F)c2)cc1`, the GI50 was 1.12 µM and the TGI is 6.71 µM.
For `Cc1[nH]c2ccccc2c1-c1cc(-c2cc(-c3c(C)[nH]c4ccccc34)on2)no1`, the TGI is > 100 µM.
Take `Cn1cnc([N+](=O)[O-])c1S(=O)(=O)Oc1ccccc1`: the GI50 was 0.759 µM and the TGI came out at 2.3 µM.
Regarding `COc1cc(C2c3cc4c(cc3C(O)C(CO)C2CO)OCO4)cc(OC)c1OC` (stereo not given), the GI50 was 0.38 µM.
On to `CCCNC(=S)/N=C/c1c(O)c2ccccc2[nH]c1=O`, for which the TGI is > 100 µM.
On the same count and under the same terms, then `COC1C(O)=C2C(=O)O/C(C)=C/C=C/C=C/C=C\CC(c3ccccc3)NC(=O)\C=C/C=C\C=C\C=C\[C@@]2(C)[C@@H]1O` (stereo not given in full), with < 0.0285 µM.
As for `COc1ccc(-c2oc(=O)ccc2-c2cc(OC)c(OC)c(OC)c2)cc1F`, the GI50 is 3.04 µM and the TGI stood at 23.6 µM.
For `COC12C=C/C(=C(/C(=O)OCc3ccncc3)C(=O)CCCCCCCCC3(OC)C=C/C(=C(/C(=O)OCc4ccncc4)C(=O)CCCCCCCC1)O3)O2`, in that order: 0.564 µM and 1.76 µM.
For `CC(C)=CCc1cc(O)cc2c1OC(C=C(C)C)C1=C2C(=O)C2=C(NCCS2(=O)=O)C1=O` (stereo not given), in that order: 2.64 µM and 7.41 µM.
For `Cc1csc(Nc2nc(-c3cccc(Br)c3)nc(C(Cl)(Cl)Cl)n2)n1`, in that order: > 100 µM and > 100 µM.
As to `COc1c(OC)c(OC)c(C(=O)/C=C/c2ccccc2)c(OC)c1OC`, the TGI was 14.7 µM.
On to `NS(=O)(=O)c1ccc(N(/C=C/C(=O)C(F)(F)F)CC(=O)c2ccc(Cl)cc2)cc1`, for which the GI50 was 24.3 µM and the TGI came to 72.2 µM.
For `CC1=CC(=O)[C@@H](O)[C@]2(C)[C@H]3[C@@]4(O)OC[C@]35[C@H]([C@@H](C)[C@H]4O)[C@@H](O)C(=O)O[C@@H]5C[C@@H]12`, the TGI came to 0.7 µM.
`Nc1nc(N)c(N=Nc2ccc([As](=O)(O)O)cc2)c(=O)[nH]1`: the TGI was > 100 µM.
In the case of `COc1ccc2[nH]cc(-c3nc(-c4c[nH]c5ncccc45)cs3)c2c1`, the GI50 was 8.02 µM and the TGI was > 100 µM.
For `O=c1cc(-c2ccccc2)[nH]c2c(S)cccc12`, the TGI is > 100 µM.

A further assay deals with HT29 colon. Description: NCI-60 cell line screen, 48 h.
On to `Nc1nccc2c1ccn2-c1ccc(NC(=O)c2ccc(N3CCOCC3)c(C(F)(F)F)c2)cc1`, for which the GI50 was 0.322 µM and the TGI came to 1.26 µM.
For `Cc1[nH]c2ccccc2c1-c1cc(-c2cc(-c3c(C)[nH]c4ccccc34)on2)no1`, the TGI was > 100 µM.
For the compound `Cn1cnc([N+](=O)[O-])c1S(=O)(=O)Oc1ccccc1`, the GI50 was 3.14 µM and the TGI turned out to be 8.21 µM.
With `COc1cc(C2c3cc4c(cc3C(O)C(CO)C2CO)OCO4)cc(OC)c1OC` (stereo not given), the GI50 was 0.422 µM.
Turning to `CCCNC(=S)/N=C/c1c(O)c2ccccc2[nH]c1=O`, the TGI was > 100 µM.
As to `COC1C(O)=C2C(=O)O/C(C)=C/C=C/C=C/C=C\CC(c3ccccc3)NC(=O)\C=C/C=C\C=C\C=C\[C@@]2(C)[C@@H]1O` (stereo not given in full), the TGI was 0.0531 µM.
As to `COc1ccc(-c2oc(=O)ccc2-c2cc(OC)c(OC)c(OC)c2)cc1F`, the GI50 was 4.93 µM and the TGI was > 100 µM.
With `COC12C=C/C(=C(/C(=O)OCc3ccncc3)C(=O)CCCCCCCCC3(OC)C=C/C(=C(/C(=O)OCc4ccncc4)C(=O)CCCCCCCC1)O3)O2`, the GI50 was 0.721 µM and the TGI was 4.79 µM.
Turning to `CC(C)=CCc1cc(O)cc2c1OC(C=C(C)C)C1=C2C(=O)C2=C(NCCS2(=O)=O)C1=O` (stereo not given), the GI50 was 1.95 µM and the TGI is 7.24 µM.
As to `O=C1NC(=S)NNC12c1ccccc1-c1ccccc12`, the TGI was > 10 µM.
Take `Cc1csc(Nc2nc(-c3cccc(Br)c3)nc(C(Cl)(Cl)Cl)n2)n1`: the GI50 is 0.56 µM and the TGI is > 100 µM.
The compound `COc1c(OC)c(OC)c(C(=O)/C=C/c2ccccc2)c(OC)c1OC` yielded a TGI of 15.1 µM.
Consider `NS(=O)(=O)c1ccc(N(/C=C/C(=O)C(F)(F)F)CC(=O)c2ccc(Cl)cc2)cc1`, for which the GI50 is 35.6 µM and the TGI was > 100 µM.
Regarding `Nc1nc(N)c(N=Nc2ccc([As](=O)(O)O)cc2)c(=O)[nH]1`, the TGI is > 100 µM.
Still for that read-out and setting: then `O=c1cc(-c2ccccc2)[nH]c2c(S)cccc12`, with > 100 µM.
For the compound `C=CCc1cccc(/C=N/NC(=O)CN2CCN(Cc3ccccc3)CC2)c1O`, the GI50 was 3.24 µM and the TGI is 13.7 µM.
Turning to `N#Cc1c(-c2ccc(F)cc2)c(-c2ccc(F)cc2)nn(CCO)c1=O`, the TGI is > 22.9 µM.
